In US20030003086A1, “Modulation of MHC class I antigen presentation” (priority 2001, published 2003):

Assays:
TOP [1] = molecular target: T1, TOP (Homo sapiens, UniProt P52888); test: Generation of SIINFEKL+Kb complexes in Kb-Cos7 cells loaded with ovalbumin and TOP inhibitor by hypertonic lysis of pinosomes (25D1 staining, flow cytometry); assay type: cell-based; conditions: cells transfected with TOP
T1 construct: was introduced into pTracer-transfected Kb-Cos7 cells; endogenous in cells; host or cells: Kb-Cos7 cells transfected with pTracer (GFP) only
T1 sequence (P52888 whole entry): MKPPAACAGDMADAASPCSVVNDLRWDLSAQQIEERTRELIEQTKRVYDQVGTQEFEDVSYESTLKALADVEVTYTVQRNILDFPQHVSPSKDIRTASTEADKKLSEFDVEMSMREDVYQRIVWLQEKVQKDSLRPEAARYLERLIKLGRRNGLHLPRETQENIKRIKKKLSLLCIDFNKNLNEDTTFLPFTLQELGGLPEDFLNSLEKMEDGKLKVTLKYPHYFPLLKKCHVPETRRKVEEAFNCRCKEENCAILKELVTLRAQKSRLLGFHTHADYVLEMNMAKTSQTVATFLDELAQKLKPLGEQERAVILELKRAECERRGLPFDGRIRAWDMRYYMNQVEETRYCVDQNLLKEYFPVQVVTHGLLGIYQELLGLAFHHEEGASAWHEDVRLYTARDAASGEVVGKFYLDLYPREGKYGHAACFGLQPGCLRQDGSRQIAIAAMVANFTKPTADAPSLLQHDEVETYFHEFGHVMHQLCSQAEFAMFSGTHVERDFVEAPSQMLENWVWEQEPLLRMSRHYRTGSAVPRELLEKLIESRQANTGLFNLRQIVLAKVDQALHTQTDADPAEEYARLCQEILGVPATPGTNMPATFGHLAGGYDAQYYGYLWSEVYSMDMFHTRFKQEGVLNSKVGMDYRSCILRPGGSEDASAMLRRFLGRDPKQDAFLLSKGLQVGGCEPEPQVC
From the text: (§1) To test whether TOP can influence antigen presentation, the effects of transiently overexpressing TOP in vivo on the presentation of SIINFEKL (SEQ ID NO:5) peptide produced in the cytoplasm from a synthetic minigene were studied. In one set of experiments, expression vectors encoding TOP and SIINFEKL were transiently co-transfected into Kbexpressing COS7 cells. The presentation of SIINFEKL on MHC class I Kb molecules was detected by staining with a SIlNFEKL+Kb-specific monoclonal antibody (25D1) (Porgador et al., 1997, Immunity. 6:715-726) and quantified by flow cytometry. Briefly, Kb-Cos7 cells were co-transfected with a SIINFEKL minigene in pCDNA3 and a pTracer plasmid encoding green fluorescence protein (GFP), GFP+human TOP or GFP+ORP 150 (a control protein) using FuGENE™ (Roche Applied Science). After 48 hours, the cells were stained with an anti-SIINFEKL+Kb specific nAb (25D1) (Porgador et al., 1997, supra) followed by pbycoerythrin-conjugated anti-immunoglobulin antibody and fluorescence was measured by flow fluorocytometry. […]
(§2) The data of FIG. 3C were generated in experiments in which ovalbumin (40 mg/ml) admixed with either the TOP inhibitor cPP-AAF-pAB (1 mM) or vehicle (DMSO) was introduced into pTracer-transfected Kb-Cos7 cells. After two hours the presence of SIINFEKL+Kb complexes was determined by immunofluorescence as described for FIG. 1A (supra). […]

TOP [2] = test: as above; assay type: cell-based; conditions: Kb-Cos7 cells not overexpressing TOP; ovalbumin 40 mg/ml, inhibitor 1 mM, two hours; FIG. 3C
From the text: as §1, §2

living cells = conditions: cited from earlier work
pure PSA = pure PSA (Homo sapiens, UniProt P55786); test: Degradation of FAPGNYPAL by pure PSA; assay type: biochemical; conditions: PSA at concentrations similar to those found in HeLa cells
pure PSA, sequence (P55786 whole entry): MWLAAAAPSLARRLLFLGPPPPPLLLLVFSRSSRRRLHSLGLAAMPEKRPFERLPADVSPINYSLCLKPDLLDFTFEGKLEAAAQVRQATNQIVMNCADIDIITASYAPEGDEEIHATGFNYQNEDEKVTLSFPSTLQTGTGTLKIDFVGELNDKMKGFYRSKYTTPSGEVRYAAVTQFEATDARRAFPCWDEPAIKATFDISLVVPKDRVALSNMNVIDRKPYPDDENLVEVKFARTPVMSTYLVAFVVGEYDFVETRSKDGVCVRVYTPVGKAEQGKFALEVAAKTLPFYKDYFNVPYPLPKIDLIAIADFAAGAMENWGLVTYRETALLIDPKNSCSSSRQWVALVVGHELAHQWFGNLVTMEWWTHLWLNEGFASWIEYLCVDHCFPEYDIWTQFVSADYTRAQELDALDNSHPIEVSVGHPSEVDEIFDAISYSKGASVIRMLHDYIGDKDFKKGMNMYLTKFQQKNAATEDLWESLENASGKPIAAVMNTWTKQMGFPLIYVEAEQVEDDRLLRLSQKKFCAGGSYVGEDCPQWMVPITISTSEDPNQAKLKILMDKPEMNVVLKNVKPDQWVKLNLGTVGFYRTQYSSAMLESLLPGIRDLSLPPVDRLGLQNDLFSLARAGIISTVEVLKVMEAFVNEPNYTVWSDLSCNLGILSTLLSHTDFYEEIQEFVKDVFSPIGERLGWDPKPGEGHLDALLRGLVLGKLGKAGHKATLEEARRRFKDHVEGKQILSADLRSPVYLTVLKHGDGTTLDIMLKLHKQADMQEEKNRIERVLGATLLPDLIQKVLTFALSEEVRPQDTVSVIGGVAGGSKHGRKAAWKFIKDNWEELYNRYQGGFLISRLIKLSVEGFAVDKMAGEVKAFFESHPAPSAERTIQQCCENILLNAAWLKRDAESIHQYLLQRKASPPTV

| Substance | generation of SIINFEKL-Kb complexes (MHC class I presentation) (TOP [1]) | generation of SIINFEKL-Kb complexes (MHC class I presentation) (TOP [2]) | entry into living cells / cell cytosol (living cells) | susceptibility to degradation by pure PSA (pure PSA) |
| --- | --- | --- | --- | --- |
| N-(1(RS)-carboxy-3-phenylpropyl)-Ala-Ala-Tyr-p-aminobenzoate [cPP-AAF-PAB] | enhanced | enhanced | does not enter living cells |  |
| FAPGNYPAL [antigenic peptide, Sendai Virus NP, residues 324-332] |  |  |  | particularly susceptible to degradation |
